# T1: CEA on LoVo colorectal tumour cells (CEA positive) (human, UniProt P06731 35-685, GPI anchor on the C-terminal residue; heavily N-glycosylated on cells)
# T1 construct: also called CEA positive LoVo cells; LoVo, CEA bearing, tumour cells
# T1 sequence: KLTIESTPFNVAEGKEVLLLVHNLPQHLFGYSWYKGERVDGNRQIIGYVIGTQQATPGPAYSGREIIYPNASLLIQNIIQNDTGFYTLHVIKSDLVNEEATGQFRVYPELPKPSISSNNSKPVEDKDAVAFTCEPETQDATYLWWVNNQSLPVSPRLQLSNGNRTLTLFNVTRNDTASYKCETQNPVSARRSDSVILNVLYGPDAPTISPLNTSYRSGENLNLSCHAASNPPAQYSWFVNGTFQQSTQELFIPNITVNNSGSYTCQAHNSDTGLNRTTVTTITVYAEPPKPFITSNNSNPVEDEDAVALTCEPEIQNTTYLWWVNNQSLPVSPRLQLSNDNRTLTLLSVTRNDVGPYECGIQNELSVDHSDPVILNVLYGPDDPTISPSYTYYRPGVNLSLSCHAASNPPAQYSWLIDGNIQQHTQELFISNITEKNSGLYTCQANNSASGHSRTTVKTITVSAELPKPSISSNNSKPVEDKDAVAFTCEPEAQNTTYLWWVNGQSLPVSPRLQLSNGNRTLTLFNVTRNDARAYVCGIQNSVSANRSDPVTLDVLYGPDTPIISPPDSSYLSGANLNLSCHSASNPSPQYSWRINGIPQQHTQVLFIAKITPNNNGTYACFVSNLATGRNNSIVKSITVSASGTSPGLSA
# T2: human carcinoembryonic antigen (CEA) (human, UniProt P06731 35-685, limits assumed)
# T2 construct: CEA as coated on the ELISA plate; also called Carcinoma Embryonic Antigen
# T2 sequence (looked up): T1 sequence
# B1: (A5B7 Fab-CPG2)2 fusion protein (other)
# heavy: EVKLVESGGGLVQPGGSLRLSCATSGFTFTDYYMNWVRQPPGKALEWLGFIGNKANGYTTEYSASVKGRFTISRDKSQSILYLQMNTLRAEDSATYYCTRDRGLRFYFDYWGQGTTLTVSSASTKGPSVFPLAPCSRSTSESTAALGCLVKDYFPEPVTVSWNSGALTSGVHTFPAVLQSSGLYSLSSVVTVPSSNFGTQTYTCNVDHKPSNTKVDKTVGGGGSGGGGSGGGGSQKRDNVLFQAATDEQPAVIKTLEKLVNIETGTGDAEGIAAAGNFLEAELKNLGFTVTRSKSAGLVVGDNIVGKIKGRGGKNLLLMSHMDTVYLKGILAKAPFRVEGDKAYGPGIADDKGGNAVILHTLKLLKEYGVRDYGTITVLFNTDEEKGSFGSRDLIQEEAKLADYVLSFEPTSAGDEKLSLGTSGIAYVQVQITGKASHAGAAPELGVNALVEASDLVLRTMNIDDKAKNLRFQWTIAKAGQVSNIIPASATLNADVRYARNEDFDAAMKTLEERAQQKKLPEADVKVIVTRGRPAFNAGEGGKKLVDKAVAYYKEAGGTLGVEERTGGGTDAAYAALSGKPVIESLGLPGFGYHSDKAEYVDISAIPRRLYMAARLIMDLGAGK
# light: QTVLSQSPAILSASPGEKVTMTCRASSSVTYIHWYQQKPGSSPKSWIYATSNLASGVPARFSGSGSGTSYSLTISRVEAEDAATYYCQHWSSKPPTFGGGTKLEIKRTVAAPSVFIFPPSDEQLKSGTASVVCLLNNFYPREAKVQWKVDNALQSGNSQESVTEQDSKDSTYSLSSTLTLSKADYEKHKVYACEVTHQGLSSPVTKSFNRGEC
# notes: Two Fab-CPG2 units dimerise non-covalently through CPG2 (about 180 kDa); Tested as cell culture supernatant (COS-7 or recombinant Colo320DM / LoVo cells); also called (A5B7-CPG2 R6)2 fusion protein; (A5B7-CPG2)2 fusion protein
# Legend:
# [1] = tested on: non-transfected HCT116 cells; format: cell-based; conditions: read-out: IC50 (concentration required to inhibit cell growth by 50%)
# [2] = tested on: HCT116 cells transfected with the antibody-CPG2 fusion protein gene; format: cell-based
# [3] = tested on: HCT116 tumours established from transfected HCT116 cells; assay: Anti-tumour activity in HCT116 tumours from transfected cells; format: in vivo, athymic nude mice; conditions: PGP i.p., 3 doses at hourly intervals, 5-25 mg kg^-1, vs PBS
# Description: (§1) HCT116 tumour cells transfected with the antibody-CPG2 fusion protein gene or control non-transfected HCT116 tumour cells are injected subcutaneously into athymic nude mice (10^7 tumour cells per mouse). When the turnours are 5-7 mm in diameter the PGP prodrug is administered i.p. to the mice (3 doses at hourly intervals over 2 h in dose ranges of 5-25 mg kg^−1). The anti-tumour effects are judged by measuring the length of the tumours in two directions and calculating the tumour volume using the formula: […]
# (§2) where D is the larger diameter and d is the smaller diameter of the tumour.
# (§3) Tumour volume is expressed relative to the tumour volume at the time the PGP prodrug is administered. The anti-tumour activity is compared to a control group receiving either transfected or non-transfected tumour cells and PBS ([…], 3.4 mM KCl, 12 mM Na2HPO4 and 1.8 mM KH2PO4, pH 7.2) instead of the PGP prodrug.
# [4] = tested on: HCT116 tumours established from non-transfected cells; assay: Anti-tumour activity in HCT116 tumours from non-transfected cells; format: in vivo, athymic nude mice; conditions: PGP i.p., 3 doses at hourly intervals, 5-25 mg kg^-1
# Description: as §1, §2, §3
# [5] = tested on: LoVo cells transfected with an antibody-CPG2 fusion protein gene; assay: In vitro prodrug killing, LoVo cells transfected with antibody-CPG2 fusion protein gene; format: cell-based
# [6] = tested on: non-transfected LoVo cells; assay: In vitro prodrug killing, non-transfected LoVo cells; format: cell-based
# [7] = tested on: LoVo tumours established from recombinant LoVo cells or recombinant Lovo/Parental LoVo cell mixes; assay: Anti-tumour activity in LoVo tumours expressing the antibody-CPG2 fusion protein; format: in vivo, athymic nude mice
# Description: (§4) Recombinant LoVo (A5B7-CPG2)2 fusion protein expressing tumour cells or mixes of recombinant and parental LoVo cells were injected subcutaneously into athymic nude mice as described in Example 9.
# (§5) When the tumours are 5-7 mm in diameter the PGP prodrug is administered i.p. to the mice (3 doses in DMSO/0.15 M sodium bicarbonate buffer at hourly intervals over 2 h in dose ranges of 40-80 mg kg^−1).
# (§6) Anti-tumour effects are judged by measuring the length of the tumours in two directions and calculating the tumour volume using the formula
# (§7) where D is the larger diameter and d is the smaller diameter of the tumour. Tumour volume may be expressed relative to the tumour volume at the time the PGP prodrug is administered or alternatively the median tumouT volumes may be calculated. The anti-tumour activity is compared to control groups receiving either transfected or non-transfected tumour cells and buffer without PGP prodrug.
# [8] = tested on: LoVo tumours established from non-transfected cells; assay: Anti-tumour activity in LoVo tumours from non-transfected cells; format: in vivo, athymic nude mice; conditions: PGP i.p., 3 doses at hourly intervals, 40-80 mg kg^-1
# Description: as §4, §5, §6, §7
# [9] = tested on: established HCT116 tumours produced from non-transfected HCT116 cells; assay: Anti-tumour activity, fusion gene vector injected intra-tumourally into established HCT116 tumours, then PGP; format: in vivo, athymic nude mice; conditions: PGP after 1-3 days, vs PBS
# Description: (§8) Thus non-transfected HCT116 cells are injected into athymic nude mice (1×10^7 tumour cells per mouse) and once the tumours are 5-7 mm in diameter the vector containing the antibody-enzyme fusion protein gene is injected intra-tumourally. After 1-3 days to allow the antibody-enzyme fusion protein to be expressed by and bind to the HCT116 tumour cells, the PGP prodrug is administered as described above.
# [10] = tested on: established LoVo tumours produced from non-transfected parental LoVo cells; assay: Anti-tumour activity, fusion gene vector injected intra-tumourally into established LoVo tumours, then PGP; format: in vivo, athymic nude mice; conditions: PGP after 1-3 days, vs controls
# Description: as §8, with “non-transfected LoVo” for “non-transfected HCT116”, “expressed by,” for “expressed by”, “bind to,” for “bind to”, “the LoVo” for “the HCT116”
# [11] = target: T1, CEA on LoVo colorectal tumour cells …; assay: cell based ELISA on fixed cells, anti-human kappa HRP detection, OD 490 nm
# Description: 100 µl of 6% formaldehyde was diluted in DMEM and left for 1 hour at 4°. Plates were centrifuged and washed 3 times in PBS containing 0.05% Tween™ by immersion soaking (first two washes for 2 minutes and the final wash for 5 minutes).
# Colour was allowed to develop for about 5 min, stopped with 75 μl per well of 2M H_2SO_4 and OD read at 490 nm.
# [12] = target: T2, human carcinoembryonic antigen (CEA); assay: CEA ELISA, COS-7 supernatant, anti-human kappa or anti-CPG2 reporter antibody
# Description: For the CEA ELISA each well of a 96 well immunoplate (NUNC MAXISORB™) was coated with 50 ng CEA in 50 mM carbonate/bicarbonate coating buffer pH9.6 (buffer capsules—Sigma C3041) and incubated at 4° overnight. The plate was washed three times with PBS-TWEEN™ (PBS+ 0.05% TWEEN™ 20) and then blocked 150 μl per well of 1% BSA in PBS-TWEEN™ for 1 hour at room temperature. The plate was washed three times with PBS-TWEEN™, 100 μl of test sample added per well and incubated at room temperature for 2 hours. […] The plate was washed three times with PBS-TWEEN™ and then once more with PBS. To detect binding, add 100 μl per well of developing solution (one capsule of phosphate-citrate buffer—Sigma P4922—dissolved in 100 ml H_2O to which is added one 30 mg tablet o-phenylenediamine dihydrochloride—Sigma P8412) and incubated for up to 15 minutes. The reaction was stopped by adding 75 μl 2M H_2SO_4, and absorbance read at 490 nm.
# The CEA ELISA using an anti CPG2 reporter antibody was essentially as above but instead of HRPO-labelled goat anti-human kappa antibody an 1/1000 dil. of a rabbit anti-CPG2 polyclonal sera was added, in 1% BSA in PBS-TWEEN™ and incubated at room temperature on a rocking platform for at 2 hours. The plate was washed three times with PBS-TWEEN™. […] The reaction was stopped by adding 75 μl 2M H_2SO_4, and absorbance read at 490 nm.
binding result [11],binding result [12],Molecule,IC50 [1],sensitivity of transfected compared to non-transfected HCT116 cells in terms of cell killing [2],IC50 ([2]; read-out: IC50 (concentration required to inhibit cell growth by 50%)),anti-tumour effect [3],anti-tumour activity [4],conversion of prodrug into active drug by cells ([5]; transfected LoVo cells),sensitivity of transfected compared to non-transfected LoVo cells in terms of cell killing ([5]; transfected vs non-transfected LoVo),conversion of prodrug into active drug by cells [6],"tumour growth delay ([7]; 60 mg/kg doses of prodrug, FIG. 5)","median tumour volume relative to initial size ([7]; 60 mg/kg doses of prodrug, day 16 post-dose, FIG. 5)","anti-tumour effect ([7]; PGP i.p., 3 doses at hourly intervals, 40-80 mg kg^-1, vs controls)",anti-tumour activity [8],anti-tumour activity [9],anti-tumour activity [10]
,,"O=C(O)CC[C@H](NC(=O)Oc1ccc(N(CCCl)CCCl)cc1)C(=O)O [PGP, N-(4-[N,N-bis(2-chloroethyl)amino]-phenoxycarbonyl)-L-glutamic acid]",~200 µM,over 100 fold,~1 µM,significant anti-tumour effect,no significant anti-tumour activity,can convert the PGP prodrug into the more potent active drug,over 100 fold,unable to convert the prodrug,≥ 11 days,3 times their initial size,significant anti-tumour effect,no significant anti-tumour activity,significant anti-tumour activity,significant anti-tumour activity
binds,binds,B1,,,,,,,,,,,,,,
